{
  "source": "ChEMBL document CHEMBL1132519",
  "about": "“Synthesis and sar of 2- and 3-substituted 7-azaindoles as potential dopamine D4 ligands” (Bioorg Med Chem Lett, 1999)",
  "key": {"[1]": {"molecular_target": "D(3) dopamine receptor (Homo sapiens, UniProt P35462)", "sequence (P35462 whole entry)": "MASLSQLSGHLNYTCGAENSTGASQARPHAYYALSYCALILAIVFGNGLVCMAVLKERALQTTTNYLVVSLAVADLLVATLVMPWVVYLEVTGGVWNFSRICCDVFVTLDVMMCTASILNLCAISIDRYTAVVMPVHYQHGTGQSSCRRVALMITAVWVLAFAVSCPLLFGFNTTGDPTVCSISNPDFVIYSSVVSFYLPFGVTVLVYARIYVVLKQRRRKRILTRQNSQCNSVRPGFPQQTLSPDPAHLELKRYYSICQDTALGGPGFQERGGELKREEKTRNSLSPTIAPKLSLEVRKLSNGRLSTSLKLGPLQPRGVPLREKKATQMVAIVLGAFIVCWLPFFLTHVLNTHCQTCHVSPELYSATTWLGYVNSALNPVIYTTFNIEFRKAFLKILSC", "description": "Ability to displace [3H]-spiperone from cloned human dopamine D3 receptor stably expressed in CHO cells"}, "[2]": {"molecular_target": "D(2) dopamine receptor (Homo sapiens, UniProt P14416)", "sequence (P14416 whole entry)": "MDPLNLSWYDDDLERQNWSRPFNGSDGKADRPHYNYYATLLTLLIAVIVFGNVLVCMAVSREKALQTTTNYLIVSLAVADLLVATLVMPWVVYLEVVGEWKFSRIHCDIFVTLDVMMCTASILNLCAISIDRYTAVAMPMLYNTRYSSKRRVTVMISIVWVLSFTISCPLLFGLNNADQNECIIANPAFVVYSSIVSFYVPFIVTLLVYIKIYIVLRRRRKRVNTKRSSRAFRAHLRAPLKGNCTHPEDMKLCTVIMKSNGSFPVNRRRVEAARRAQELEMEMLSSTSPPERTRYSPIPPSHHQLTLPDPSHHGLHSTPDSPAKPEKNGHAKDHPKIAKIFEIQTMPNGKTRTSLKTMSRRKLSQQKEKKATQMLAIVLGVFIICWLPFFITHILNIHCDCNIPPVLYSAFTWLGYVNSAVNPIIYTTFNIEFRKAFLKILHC", "description": "Ability to displace [3H]spiperone from cloned human dopamine D2 receptor stably expressed in CHO cells"}, "[3]": {"molecular_target": "T1, D(4) dopamine receptor (Homo sapiens, UniProt P21917)", "T1 sequence (P21917 whole entry)": "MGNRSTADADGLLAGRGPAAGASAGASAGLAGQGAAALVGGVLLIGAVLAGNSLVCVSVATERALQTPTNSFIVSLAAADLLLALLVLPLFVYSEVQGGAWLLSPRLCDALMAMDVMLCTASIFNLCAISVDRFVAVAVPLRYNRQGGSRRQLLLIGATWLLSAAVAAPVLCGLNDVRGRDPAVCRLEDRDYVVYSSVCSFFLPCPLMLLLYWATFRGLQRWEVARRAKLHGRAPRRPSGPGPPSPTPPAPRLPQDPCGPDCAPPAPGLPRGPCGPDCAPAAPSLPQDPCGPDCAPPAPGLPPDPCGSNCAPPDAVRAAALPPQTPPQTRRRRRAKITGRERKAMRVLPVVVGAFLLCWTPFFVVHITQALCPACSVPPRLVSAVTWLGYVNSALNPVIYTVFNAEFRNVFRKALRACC", "description": "Ability to displace [3H]spiperone from cloned human dopamine D4 receptor stably expressed in HEK293 cells"}},
  "data": [
    {"smiles": "c1ccc2c(c1)CCN(Cc1c[nH]c3ncccc13)C2", "values": [
      {"measurement": "Ki", "setting": "[1]", "value": 170, "unit": "nM"},
      {"measurement": "Ki", "setting": "[2]", "value": 640, "unit": "nM"},
      {"measurement": "Ki", "setting": "[3]", "value": 7, "unit": "nM"}
    ]},
    {"smiles": "C1=C(/C=C/c2ccccc2)CCN(CCc2c[nH]c3ncccc23)C1", "values": [
      {"measurement": "Ki", "setting": "[1]", "value": 180, "unit": "nM"},
      {"measurement": "Ki", "setting": "[2]", "value": 280, "unit": "nM"},
      {"measurement": "Ki", "setting": "[3]", "value": 6.5, "unit": "nM"}
    ]},
    {"smiles": "c1c[nH]c2nc(CN3CCc4ccccc4C3)cc-2c1", "values": [
      {"measurement": "Ki", "setting": "[1]", "value": 1100, "unit": "nM"},
      {"measurement": "Ki", "setting": "[2]", "value": 600, "unit": "nM"},
      {"measurement": "Ki", "setting": "[3]", "value": 59, "unit": "nM"}
    ]},
    {"smiles": "C1=C(c2ccccc2)CCN(CCc2c[nH]c3ncccc23)C1", "values": [
      {"measurement": "Ki", "setting": "[1]", "value": 10, "unit": "nM"},
      {"measurement": "Ki", "setting": "[2]", "value": 21, "unit": "nM"},
      {"measurement": "Ki", "setting": "[3]", "value": 34, "unit": "nM"}
    ]},
    {"smiles": "COc1ccc(N2CCN(CCc3c[nH]c4ncccc34)CC2)cc1", "values": [
      {"measurement": "Ki", "setting": "[1]", "value": 530, "unit": "nM"},
      {"measurement": "Ki", "setting": "[2]", "value": 900, "unit": "nM"},
      {"measurement": "Ki", "setting": "[3]", "value": 26, "unit": "nM"}
    ]},
    {"smiles": "Clc1ccc(N2CCN(CCc3cc4cccnc4[nH]3)CC2)cc1", "values": [
      {"measurement": "Ki", "setting": "[1]", "value": 50, "unit": "nM"},
      {"measurement": "Ki", "setting": "[2]", "value": 800, "unit": "nM"},
      {"measurement": "Ki", "setting": "[3]", "value": 11.7, "unit": "nM"}
    ]},
    {"smiles": "c1ccc(CCC2CCN(Cc3c[nH]c4ncccc34)CC2)cc1", "values": [
      {"measurement": "Ki", "setting": "[1]", "value": 1300, "unit": "nM"},
      {"measurement": "Ki", "setting": "[2]", "value": 1100, "unit": "nM"},
      {"measurement": "Ki", "setting": "[3]", "value": 1.8, "unit": "nM"}
    ]},
    {"smiles": "c1ccc(CCC2CCN(Cc3cc4ccc[nH]c-4n3)CC2)cc1", "values": [
      {"measurement": "Ki", "setting": "[1]", "value": 250, "unit": "nM"},
      {"measurement": "Ki", "setting": "[2]", "value": 200, "unit": "nM"},
      {"measurement": "Ki", "setting": "[3]", "value": 2, "unit": "nM"}
    ]},
    {"smiles": "C1=C(/C=C/c2ccccc2)CCN(CCc2cc3ccc[nH]c-3n2)C1", "values": [
      {"measurement": "Ki", "setting": "[1]", "value": 25, "unit": "nM"},
      {"measurement": "Ki", "setting": "[2]", "value": 1300, "unit": "nM"},
      {"measurement": "Ki", "setting": "[3]", "value": 30, "unit": "nM"}
    ]},
    {"smiles": "COc1ccc(N2CCN(Cc3c[nH]c4ncccc34)CC2)cc1", "values": [
      {"measurement": "Ki", "setting": "[1]", "value": 3900, "unit": "nM"},
      {"measurement": "Ki", "setting": "[2]", "value": "> 1500", "unit": "nM"}
    ]}
  ]
}
